# In patent US12698306B2, “Bile acid-GCPII inhibitor conjugates to treat inflammatory diseases, including inflammatory bowel disease (IBD)” (The Johns Hopkins University, priority 2020, dated 2026):
# Columns and labels:
# [1] = tested on: dextran sodium sulfate (DSS)-induced colitis; experiment: Dextran sodium sulfate (DSS)-induced colitis model, disease activity index (DAI); type: in vivo, mice (C57Bl/6NHsd); settings: for anti-IBD activity: disease activity index (DAI): once daily oral
# Experimental: (§1) Colitis was induced using either 2.5% DSS (FIG. 1A, FIG. 1B, and FIG. 1C) or 4.0% DSS (FIG. 1D, FIG. 1E, FIG. 1F, FIG. 1G, and FIG. 1H) resulting in the characteristic development of diarrhea, rectal bleeding and body weight loss. These parameters were evaluated daily, scored and summated to compute a disease activity index (DAI). Mice received once daily oral treatment with test article or vehicle beginning on Study Day 0 and continuing through Study Day 7. […] All data depicted as mean+/−SEM. 2-way ANOVA, *p<0.05, **p<0.01, ***p<0.001;
# as §1, with “using” for “using either 2.5% DSS (FIG. 1A, FIG. 1B, and FIG. 1C) or”, “DSS” for “DSS (FIG. 1D, FIG. 1E, FIG. 1F, FIG. 1G, and FIG. 1H)”, “6.” for “7.”
# (§2) Six-week old male C57Bl/6NHsd mice were challenged with 4.0% DSS in drinking water from Study Day 0-5 followed by exposure to freshwater, inducing severe acute colitis. Oral (S)-LTP592 was administered once daily beginning on study day 0 at 1 mg/kg, 10 mg/kg and 100 mg/kg 2-PMPA molar equivalent doses. (FIG. 4A) 100 mg/kg eq. […] (S)-LTP592, while GCPII was only 40% inhibited at the non-efficacious dose of 1 mg/kg eq. (n=8/group; **p<0.01 2-tailed t-test). (FIG. 4C) Strikingly, 100 mg/kg eq. […] (FIG. 4D, FIG. 4E, and FIG. 4F) Efficacy of 100 mg/kg eq. (S)-LTP592 in the DSS-colitis model was driven by improvements in (FIG. 4C) stool score and (FIG. 4D) bleeding score (n=15/group; ***p<0.001, *p<0.05 2-way ANOVA);
# (§3) Six-week old male C57Bl/6NHsd mice were challenged with 4.0% DSS in drinking water from study day 0-6 followed by exposure to freshwater. Oral (S)-LTP592 was administered once daily beginning on study day 0 at 100 mg/kg 2-PMPA molar equivalent doses. (FIG. 5A, FIG. 5B, and FIG. 5C) 100 mg/kg eq. […] (FIG. 5D, FIG. 5E, FIG. 5F, and FIG. 5G) A subset of mice (n=8/group) were euthanized on study day 5, prior to fulminant colitis. Their colons were harvested and processed for flow cytometry. […] All DSS-induced changes in myeloid inflammatory cell populations were attenuated by (S)-IBD3540 treatment (n=8-9/group, **p<0.01, *p<0.05, 2-tailed t-test).
# Six- to eight-week-old male C57BM6NHsd mice were acquired from Harlan Laboratories/Envigo (Indianapolis, IN). Animals were housed in the Johns Hopkins animal facility under controlled temperature (25° C.) and photoperiod (12-hour-light/12-hour-dark cycle) with access to standard diet and water (or specified DSS-containing drinking water) ad libitum. All animal studies were approved by the Animal Care and Use Committee of Johns Hopkins University, Baltimore, MD and adhered to all of the applicable institutional and governmental guidelines for the humane treatment of laboratory animals. Mice were housed 4-5 per cage and allowed to acclimate to their environment for at least 5 days before inclusion in experiments. Mice (n=5-30/group) were randomized by body weight into equivalent experimental groups: (a) DSS with vehicle or (b) DSS with test article. Acute colitis was induced by administration of 2.5%-4.0% (w/v) DSS (MW 40,000-50,000; Affymetrix Santa Clara, CA) in the drinking water for 5 days, followed by exposure to freshwater for two days. Daily oral (PO) dosing of vehicle or test article was initiated on study day 0 and was continued until sacrifice on study day 7. […]
# recombinant human GCPII = recombinant human GCPII (Homo sapiens, UniProt Q04609); experiment: GCPII inhibition, radiosubstrate based assay; type: biochemical; settings: GCPII IC50 ratio, (S)- vs (R)-enantiomer
# recombinant human GCPII, sequence (Q04609 whole entry): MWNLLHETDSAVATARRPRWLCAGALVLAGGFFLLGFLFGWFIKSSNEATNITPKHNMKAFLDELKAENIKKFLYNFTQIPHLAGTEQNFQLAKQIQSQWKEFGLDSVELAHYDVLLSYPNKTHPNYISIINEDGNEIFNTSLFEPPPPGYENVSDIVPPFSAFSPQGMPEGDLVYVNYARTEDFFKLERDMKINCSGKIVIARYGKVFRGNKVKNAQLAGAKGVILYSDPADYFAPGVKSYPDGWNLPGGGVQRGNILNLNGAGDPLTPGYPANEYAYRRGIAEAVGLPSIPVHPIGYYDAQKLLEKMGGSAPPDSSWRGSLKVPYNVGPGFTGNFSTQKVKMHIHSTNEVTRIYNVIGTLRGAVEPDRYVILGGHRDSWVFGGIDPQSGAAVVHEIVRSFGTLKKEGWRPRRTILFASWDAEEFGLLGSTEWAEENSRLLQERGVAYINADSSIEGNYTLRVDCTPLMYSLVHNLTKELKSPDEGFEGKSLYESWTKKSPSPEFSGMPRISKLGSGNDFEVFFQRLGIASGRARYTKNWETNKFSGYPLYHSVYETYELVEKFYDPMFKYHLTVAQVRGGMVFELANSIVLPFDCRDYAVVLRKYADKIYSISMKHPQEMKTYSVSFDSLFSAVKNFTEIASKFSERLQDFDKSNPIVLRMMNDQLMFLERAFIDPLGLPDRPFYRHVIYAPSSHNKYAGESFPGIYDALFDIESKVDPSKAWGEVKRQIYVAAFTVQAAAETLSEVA
# Experimental: FIG. 3A, FIG. 3B, FIG. 3C, and FIG. 3D show IC50 values for selected bile acid GCPII inhibitor conjugates. IC50s were determined for selected inhibitors using a previously described radiosubstrate based assay employing recombinant human GCPII. Rojas et al., 2002.
# Glutamate Carboxypeptidase II (GCPII) is a metallopeptidase that catalyzes the hydrolysis of N-acetylated aspartate-glutamate (NAAG) to N-acetyl aspartate (NAA) and glutamate and cleaves terminal glutamate moieties sequentially from folate polyglutamate (Ristau et al., 2013; Mesters et al, 2006; Slusher et al, 2013). In certain embodiments, the presently disclosed compounds of formula (I) are GCPII inhibitors. As used herein, a GCPII inhibitor is a molecule that decreases or inhibits the activity of GCPII. The modulation of the activity of GCPII may be detected by use of an assay for the intrinsic N-acetylated alpha-linked acidic dipeptidase (AALADase) activity of GCPII (Tang et al, 2003; Robinson et al 1987: Lupoid et al., 2002; U.S. Patent App. Pub. No. 20110064657). Inhibition curves may be determined using semi-log plots and IC50 values determined at the concentration at which enzyme activity was inhibited by 50%.
# GCPII = biological target: T1, GCPII (Mus musculus, UniProt O35409); experiment: GCPII enzymatic activity in murine colon tissue (radioenzymatic assay); type: in vivo, mice; settings: colon collected 4-hour post dose on study day 6
# T1 construct: from tissue; host or cells: mouse proximal colon
# T1 sequence (O35409 whole entry): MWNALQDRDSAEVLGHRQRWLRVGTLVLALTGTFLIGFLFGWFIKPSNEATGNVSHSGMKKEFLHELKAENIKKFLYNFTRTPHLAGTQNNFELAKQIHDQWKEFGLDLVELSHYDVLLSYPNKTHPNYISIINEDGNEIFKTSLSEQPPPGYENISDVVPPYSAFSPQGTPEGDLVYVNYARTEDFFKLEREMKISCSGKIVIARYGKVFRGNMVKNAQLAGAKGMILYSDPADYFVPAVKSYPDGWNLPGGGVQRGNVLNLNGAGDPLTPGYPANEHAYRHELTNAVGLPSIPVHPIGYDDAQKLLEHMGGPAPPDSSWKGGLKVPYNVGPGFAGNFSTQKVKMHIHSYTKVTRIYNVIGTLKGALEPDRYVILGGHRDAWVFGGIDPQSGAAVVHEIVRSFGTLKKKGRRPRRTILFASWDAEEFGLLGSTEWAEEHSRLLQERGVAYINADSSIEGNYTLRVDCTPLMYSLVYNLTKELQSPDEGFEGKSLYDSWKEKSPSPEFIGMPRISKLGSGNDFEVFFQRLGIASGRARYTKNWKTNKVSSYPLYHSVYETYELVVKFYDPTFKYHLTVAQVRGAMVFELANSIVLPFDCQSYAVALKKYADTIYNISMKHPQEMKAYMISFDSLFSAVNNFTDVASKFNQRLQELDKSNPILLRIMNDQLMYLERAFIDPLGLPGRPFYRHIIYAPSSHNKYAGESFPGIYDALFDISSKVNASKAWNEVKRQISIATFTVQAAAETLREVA
# Experimental: as §2
# A 5-mm length location-matched segment of proximal colon was harvested and flash-frozen following euthanasia on study day 6 of DSS-induced colitis, 4-hours after the final dose with vehicle or compound. Glutamate carboxypeptidase activity was measured using a radioenzymatic assay that was optimized and described previously. Rojas et al., 2002; Robinson et al., 1987.
# [2] = tested on: myeloid inflammatory cell populations in colon; experiment: Flow cytometry of colonic lamina propria mononuclear cells in DSS colitis; type: in vivo, mice; settings: 4.0% DSS, 100 mg/kg eq. oral, study day 5
# Experimental: as §3
# On DSS study day 5, a subset of mice (n=8-9/group) were euthanized and colons were processed for flow cytometry. Specifically, the distal 3 cm of colon was separated, mesenteric fat dissected away and intestinal contents removed. Then colon was transected longitudinally, washed with PBS, and minced thoroughly. Minced colon tissues were transferred into 5 ml HBSS with 10 mM HEPES containing 5% FBS and 0.2 mg/ml collagenase D (Sigma). Tissues were digested at 37° C. for 20 min with constant agitation (250 r.p.m.), then vigorously vortexed for 20 s. The resulting cell suspension containing LPMCs was filtered through a 70-μm nylon cell strainer and washed with 10 ml PBS. […]
# [3] = 2.5% or 4.0% DSS, Study Day 0-7, 10 to 100 mg/kg 2-PMPA molar equivalent dose, DAI on Study Days 6 and 7
# [4] = 4.0% DSS, 100 mg/kg eq. oral, study day 6
# [5] = 4.0% DSS, Study Day 0-6, DAI on Study Days 4 through 6
structure (smiles),measurement,setting,value
"C[C@H](CCC(=O)OCOC(=O)CCC(CP(=O)(O)O)C(=O)O)C1CCC2C3CC[C@@H]4C[C@H](O)CC[C@]4(C)C3CC[C@@]21C (mixture of isomers) [LTP582, 5-((((4R)-4-((3R,10S,13R)-3-Hydroxy-10,13-dimethylhexadecahydro-1H-cyclopenta[a]phenanthren-17-yl)pentanoyl)oxy)methoxy)-5-oxo-2-(phosphonomethyl)pentanoic acid]",anti-IBD activity: disease activity index (DAI),[1]; [3],inactive
"C[C@H](CCC(=O)OCOC(=O)CCC(CP(=O)(O)O)C(=O)O)C1CCC2C3C(C[C@H](O)[C@@]21C)[C@@]1(C)CC[C@@H](O)C[C@H]1C[C@H]3O (mixture of isomers) [LTP588, 5-Oxo-2-(phosphonomethyl)-5-((((4R)-4-((3R,7R,10S,12S,13R)-3,7,12-trihydroxy-10,13-dimethylhexadecahydro-1H-cyclopenta[a]phenanthren-17-yl)pentanoyl)oxy)methoxy) pentanoic acid]",anti-IBD activity: disease activity index (DAI),[1]; [3],inactive
C[C@H](CCC(=O)OCOC(=O)CC[C@H](CP(=O)(O)O)C(=O)O)C1CCC2C3CC[C@@H]4C[C@H](O)CC[C@]4(C)C3C[C@H](O)[C@@]21C (stereo partly drawn) [(S)-LTP592],bleeding score,"[1]; 4.0% DSS, 100 mg/kg eq. oral",improvements
same,stool score,"[1]; 4.0% DSS, 100 mg/kg eq. oral",improvements
same,colon histology (scored by a blinded pathologist),[1]; [4],significantly improved
same,colon length,[1]; [4],normalization of colon length
same,number and depth of ulcerations and degree of inflammatory infiltration,[1]; [4],reduced
same,efficacy in DSS colitis,"[1]; 4.0% DSS, oral once daily, 1 mg/kg eq.",non-efficacious
same,efficacy in DSS colitis,"[1]; 4.0% DSS, oral once daily, 10 mg/kg eq.",effective
same,colitis severity (DAI),"[1]; 4.0% DSS, oral once daily, 100 mg/kg eq., as early as study day 3",significantly decreased
same,potency relative to (R)-LTP592,recombinant human GCPII,150 fold
same,inhibition of GCPII enzymatic activity in colon tissue,GCPII; 1 mg/kg eq. oral,40%
same,inhibition of GCPII enzymatic activity in colon tissue,GCPII; 10 mg/kg eq. oral,> 75%
same,inhibition of GCPII enzymatic activity in colon tissue,GCPII; 100 mg/kg eq. oral,> 75%
same,"DSS-induced changes in myeloid inflammatory cell populations (CD11b+ white blood cells, neutrophils, monocytes, transitioning monocytes)",[2],attenuated
"C[C@H](CCNC(=O)CCC(CP(=O)(O)O)C(=O)O)[C@H]1CCC2C3C(CC[C@@]21C)[C@@]1(C)CC[C@@H](O)C[C@H]1C[C@@H]3O (stereo partly drawn) [IS-101-020, 5-(((3R)-3-((3R,7S,10S,13R,17R)-3,7-Dihydroxy-10,13-dimethylhexadecahydro-1H-cyclopenta[a]phenanthren-17-yl)butyl)amino)-5-oxo-2-(phosphonomethyl)pentanoic acid]",anti-IBD activity: disease activity index (DAI),[1]; [3],significant reductions in DAI
"C[C@H](CCNC(=O)CCC(CP(=O)(O)O)C(=O)O)[C@H]1CCC2C3CC[C@@H]4C[C@H](O)CC[C@]4(C)C3C[C@H](O)[C@@]21C (stereo partly drawn) [IS-101-077, 5-(((3R)-3-((3R,10S,12S,13R,17R)-3,12-Dihydroxy-10,13-dimethylhexadecahydro-1H-cyclopenta[a]phenanthren-17-yl)butyl)amino)-5-oxo-2-(phosphonomethyl)pentanoic acid]",anti-IBD activity: disease activity index (DAI),[1]; [3],significant reductions in DAI
"CC(C)C[C@H](NC(=O)N[C@@H](CCC(=O)OCOC(=O)CC[C@@H](C)[C@H]1CCC2C3CC[C@@H]4C[C@H](O)CC[C@]4(C)C3C[C@H](O)[C@@]21C)C(=O)O)C(=O)O (stereo partly drawn) [IS-102-138, (2S,6S,16R)-6-Carboxy-16-((3R,10S,12S,13R,17R)-3,12-dihydroxy-10,13-dimethylhexadecahydro-1H-cyclopenta[a]phenanthren-17-yl)-2-isobutyl-4,9,13-trioxo-10,12-dioxa-3,5-diazaheptadecanoic acid]",anti-IBD activity: disease activity index (DAI),[1]; [5],significant reductions in DAI
"C[C@H](CCC(=O)OCOC(=O)CCC(CP(=O)(O)O)C(=O)O)C1CCC2C3C(CC[C@@]21C)[C@@]1(C)CC[C@@H](O)C[C@H]1C[C@@H]3O (stereo partly drawn) [LTP1054, 5-((((4R)-4-((3R,7S,12S,13R)-3,12-Dihydroxy-10,13-dimethylhexadecahydro-1H-cyclopenta[a]phenanthren-17-yl)pentanoyl)oxy)methoxy)-5-oxo-2-(phosphonomethyl) pentanoic acid]",anti-IBD activity: disease activity index (DAI),[1]; [3],inactive
C[C@H](CCC(=O)OCOC(=O)c1ccc(CC(CCC(=O)NO)C(=O)O)cc1)C1CCC2C3CC[C@@H]4C[C@H](O)CC[C@]4(C)C3C[C@H](O)[C@@]21C (some centres unmarked) [TT-220420],anti-IBD activity: disease activity index (DAI),[1]; [5],significant reductions in DAI
